Assay results reported in patent publication US20240254119A1 (THIRD HARMONIC BIO, INC., priority 2022, published 2024).

Test: Kinetic solubility assay
Type: physicochemical
Settings: kinetic solubility, 50 mM PB (pH 7.4), shaken 24 hours at RT
Protocol: 10 μL of 10 mM in DMSO of test article and control compounds was added into lower chambers of whatman miniuniprep vials, respectively. 490 μL of 50 mM PB (pH 7.4) was then added into lower chambers of the whatman miniuniprep vials, respectively. […] Miniuniprep vials were shaken for 24 hours at RT at the speed of 800 rpm, centrifuged 20 minutes (eg. 4000 rpm) and the filtrates were analyzed by UPLC-UV/HPLC-UV system to calculate the concentration with standard curve.
Filter Membrane: Miniuniprep (PTFE Filter Media with Polypropylene Housing) Cat. No. UN203NPUORG, GE Halthcare Whatman.

Compound	Solubility (μM)
Cc1ccc(-c2noc(CC(O)C(F)(F)F)n2)cc1NC(=O)c1cnc2ccccn12 (single isomer, unassigned) [I-67]	**** (a solubility less than or equal to 2 μM)
COc1ccc2ncc(C(=O)Nc3cc(-c4noc(CC(O)C(F)F)n4)ccc3C)n2c1 (single isomer, unassigned) [I-66]	**** (a solubility less than or equal to 2 μM)
Cc1ccc(-c2noc([C@H]3C[C@@H]3F)n2)cc1NC(=O)c1cnc2cc(CNS(=O)(=O)C3CC3)ccn12 [I-10]	**** (a solubility less than or equal to 2 μM)
COC(=O)NCc1ccn2c(C(=O)Nc3cc(-c4noc([C@H]5C[C@@H]5F)n4)ccc3C)cnc2c1 [I-30]	**** (a solubility less than or equal to 2 μM)
Cc1ccc(-c2noc([C@H]3C[C@@H]3F)n2)cc1NC(=O)c1cnc2cc(CF)ccn12 [I-49]	**** (a solubility less than or equal to 2 μM)
COc1ccn2c(C(=O)Nc3cccc(-c4noc(CC5CC5(F)F)n4)c3F)cnc2c1 (single isomer, unassigned) [I-54]	**** (a solubility less than or equal to 2 μM)
Cc1ccc(-c2noc(C3CC3F)n2)cc1NC(=O)c1cnn2cccc(C(F)F)c12 (stereo not drawn) [I-60]	**** (a solubility less than or equal to 2 μM)
COc1ccn2c(C(=O)Nc3cc(-c4noc([C@H]5C[C@@H]5F)n4)ccc3C)cnc2c1F [I-34]	**** (a solubility less than or equal to 2 μM)
Cc1ccc(-c2noc([C@H]3C[C@@H]3F)n2)cc1NC(=O)c1cnc2cc(C(C)(F)F)ccn12 [I-44]	**** (a solubility less than or equal to 2 μM)
Cc1ccc(-c2noc([C@H]3C[C@@H]3F)n2)cc1NC(=O)c1cnc2cc(C(=O)N3CCCC3)ccn12 [I-3]	*** (a solubility greater than 2 μM and less than or equal to 10 μM)
Cc1noc(-c2ccc3ncc(C(=O)Nc4cc(-c5noc([C@H]6C[C@@H]6F)n5)ccc4C)n3c2)n1 [I-2]	**** (a solubility less than or equal to 2 μM)
Cc1ccc(-c2noc([C@H]3C[C@@H]3F)n2)cc1NC(=O)c1cnc2ccc(CS(C)(=O)=O)cn12 [I-12]	**** (a solubility less than or equal to 2 μM)
CC(=O)NCc1ccn2c(C(=O)Nc3cc(-c4noc([C@H]5C[C@@H]5F)n4)ccc3C)cnc2c1 [I-32]	**** (a solubility less than or equal to 2 μM)
Cc1ccc(-c2noc([C@H]3C[C@@H]3F)n2)cc1NC(=O)c1cnc2cc(CNC(=O)C(C)(C)O)ccn12 [I-31]	**** (a solubility less than or equal to 2 μM)
Cc1ccc(-c2noc(C3CC3(F)F)n2)cc1NC(=O)c1cnc2cc(COCCO)ccn12 (stereo not drawn) [I-58]	** (a solubility greater than 10 μM and less than or equal to 50 μM)
Cc1ccc(-c2noc([C@H]3C[C@@H]3F)n2)cc1NC(=O)c1cnc2ccc(CC#N)cn12 [I-15]	**** (a solubility less than or equal to 2 μM)
CC(=O)NCc1ccc2ncc(C(=O)Nc3cc(-c4noc([C@H]5C[C@@H]5F)n4)ccc3C)n2c1 [I-9]	**** (a solubility less than or equal to 2 μM)
Cc1ccc(-c2noc([C@H]3C[C@@H]3F)n2)cc1NC(=O)c1cnc2cc3c(cn12)COC3 [I-28]	**** (a solubility less than or equal to 2 μM)
